Laboratory results: article PMC12615753, “Glutathione as a taste modulator: molecular mechanisms of interaction with umami and sweet taste receptors” (Food Chemistry: Molecular Sciences, 2025)

Molecular target: T1, hTAS1R1 Q278K/rTAS1R3 (Homo sapiens, UniProt Q7RTX1, Q278K)
T1 construct: UniProtKB number Q7RTX1–1); expressed in transfected cells; host or cells: HEK293T/17 (ATCC CRL-11268)
T1 sequence (Q7RTX1 21-841 Q278K): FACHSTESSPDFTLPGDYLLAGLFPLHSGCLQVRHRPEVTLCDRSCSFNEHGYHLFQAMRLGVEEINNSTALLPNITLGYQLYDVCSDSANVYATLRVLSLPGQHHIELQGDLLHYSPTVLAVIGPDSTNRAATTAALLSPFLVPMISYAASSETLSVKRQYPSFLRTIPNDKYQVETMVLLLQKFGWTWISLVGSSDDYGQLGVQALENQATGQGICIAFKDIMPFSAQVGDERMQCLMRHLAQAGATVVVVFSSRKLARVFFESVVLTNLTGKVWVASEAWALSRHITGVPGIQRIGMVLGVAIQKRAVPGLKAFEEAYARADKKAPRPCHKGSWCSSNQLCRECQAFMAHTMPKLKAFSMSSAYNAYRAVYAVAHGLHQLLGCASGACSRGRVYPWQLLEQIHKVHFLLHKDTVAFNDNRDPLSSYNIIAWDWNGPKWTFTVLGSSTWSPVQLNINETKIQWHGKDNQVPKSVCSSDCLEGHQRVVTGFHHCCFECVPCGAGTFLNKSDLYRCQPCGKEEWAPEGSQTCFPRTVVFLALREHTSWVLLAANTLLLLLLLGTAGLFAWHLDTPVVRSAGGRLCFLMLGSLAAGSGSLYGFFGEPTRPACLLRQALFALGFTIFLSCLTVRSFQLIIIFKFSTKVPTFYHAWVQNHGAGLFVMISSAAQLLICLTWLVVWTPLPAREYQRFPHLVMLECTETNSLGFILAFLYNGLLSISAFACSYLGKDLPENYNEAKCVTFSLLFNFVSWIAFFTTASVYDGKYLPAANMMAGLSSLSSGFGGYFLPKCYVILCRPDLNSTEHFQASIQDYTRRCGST
T1 sequence (Q923K1 21-858 partner): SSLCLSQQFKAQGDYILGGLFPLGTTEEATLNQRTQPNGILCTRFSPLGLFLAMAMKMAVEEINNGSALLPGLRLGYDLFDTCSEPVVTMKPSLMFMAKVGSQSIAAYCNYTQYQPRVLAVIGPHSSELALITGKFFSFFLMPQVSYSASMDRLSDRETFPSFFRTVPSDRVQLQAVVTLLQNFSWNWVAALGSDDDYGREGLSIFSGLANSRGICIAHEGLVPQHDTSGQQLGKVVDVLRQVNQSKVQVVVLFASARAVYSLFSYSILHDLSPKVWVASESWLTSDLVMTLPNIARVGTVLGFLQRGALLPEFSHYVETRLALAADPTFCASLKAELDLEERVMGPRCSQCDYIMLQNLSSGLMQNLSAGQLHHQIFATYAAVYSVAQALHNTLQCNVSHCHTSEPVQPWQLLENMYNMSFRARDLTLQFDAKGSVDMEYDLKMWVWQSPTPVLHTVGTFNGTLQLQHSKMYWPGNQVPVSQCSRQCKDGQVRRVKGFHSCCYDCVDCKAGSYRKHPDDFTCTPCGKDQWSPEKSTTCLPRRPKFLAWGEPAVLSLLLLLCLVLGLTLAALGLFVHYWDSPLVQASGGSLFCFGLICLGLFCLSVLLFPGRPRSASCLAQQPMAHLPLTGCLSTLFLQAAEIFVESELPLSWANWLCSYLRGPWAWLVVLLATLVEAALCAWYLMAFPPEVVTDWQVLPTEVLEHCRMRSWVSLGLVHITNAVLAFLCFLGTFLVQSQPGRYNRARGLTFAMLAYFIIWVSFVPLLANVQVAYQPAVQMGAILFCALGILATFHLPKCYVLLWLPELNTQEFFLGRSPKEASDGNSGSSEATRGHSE
Assay: Calcium assay, hTAS1R1 mutant co-expressed with rTAS1R3
Assay type: cell-based, rat

`N[C@@H](CCC(=O)N[C@@H](CS)C(=O)NCC(=O)O)C(=O)O` [GSH, γ-L-glutamyl-L-cysteinyl-glycine] was tested, and the EC50 was 5.66 ± 0.31 mM, the “effect of the added compound (1 mM) on the response to L-Glu” value (Q278K) was “synergy was observed” and the “response to the agonist alone, vs WT” value (Q278K) was “significantly increased the initial amplitude”. For the same compound, the “Max ∆F/F0” value (Q278K, GSH) was 1.10 ± 0.02 and the “R1 = mutant EC50/WT EC50” value (Q278K, GSH) was 2.2.
